What was measured:
Type in all cases: in vivo
[1] = test system: Alopecurus myosuroides; experiment: Pre-emergence test, weed control; settings: 3 weeks after treatment, rating 0-100 (100=death), Table 3
Experimental: (§1) The pre-emergence tests involve spraying a liquid formulation of the compound onto the soil in which the seeds of the plant species mentioned above has recently been sown.
(§2) The soil used in the tests is a prepared horticultural loam. The formulations used in the tests are prepared from solutions of the test compounds in acetone containing 0.4% by weight of an alkylphenol/ethylene oxide condensate available under the trade mark TRITON X-155.
(§3) In these tests untreated sown soil is used as control. The herbicidal effects of the test compounds are assessed visually three weeks after spraying the soil and are recorded an a 0 to 100 scale. A rating 0 indicates growth as untreated control, a rating 100 indicates death. An increase of 10 unit an the linear scale approximates to a 10% increase in the level of effect. The results of the assessment are set out in Tables 1 to 4.

[2] = test system: Apera spica-venti; experiment: Pre-emergence test, weed control; settings: 3 weeks after treatment, rating 0-100 (100=death), Table 3
Experimental: as §1, §2, §3

[3] = test system: Galium aparine; experiment: Pre-emergence test, weed control; settings: 3 weeks after treatment, rating 0-100 (100=death), Table 3
Experimental: as §1, §2, §3

[4] = test system: Lamium purpureum; experiment: Pre-emergence test, weed control; settings: 3 weeks after treatment, rating 0-100 (100=death), Table 3
Experimental: as §1, §2, §3

[5] = test system: Lolium perenne; experiment: Pre-emergence test, weed control; settings: 3 weeks after treatment, rating 0-100 (100=death), Table 3
Experimental: as §1, §2, §3

[6] = test system: Matricaria inodora; experiment: Pre-emergence test, weed control; settings: 3 weeks after treatment, rating 0-100 (100=death), Table 3
Experimental: as §1, §2, §3

[7] = test system: Poa annua; experiment: Pre-emergence test, weed control; settings: 3 weeks after treatment, rating 0-100 (100=death), Table 3
Experimental: as §1, §2, §3

[8] = test system: Setaria viridis; experiment: Pre-emergence test, weed control; settings: 3 weeks after treatment, rating 0-100 (100=death), Table 3
Experimental: as §1, §2, §3

[9] = test system: Stellaria media; experiment: Pre-emergence test, weed control; settings: 3 weeks after treatment, rating 0-100 (100=death), Table 3
Experimental: as §1, §2, §3

[10] = test system: Veronica persica; experiment: Pre-emergence test, weed control; settings: 3 weeks after treatment, rating 0-100 (100=death), Table 3
Experimental: as §1, §2, §3

[11] = test system: PAPRH; experiment: Pre-emergence test, weed control; settings: 3 weeks after treatment, rating 0-100 (100=death), Table 3
Experimental: as §1, §2
as §3, with “These acetone solutions are diluted with water and the resulting formulations applied at dosage levels corresponding to 15 g, 30 g, 60 g, 120 g or 240 g of active material per hectare in a volume equivalent to 900 liters per hectare. In” for “In”

[12] = test system: VIOAR; experiment: Pre-emergence test, weed control; settings: 3 weeks after treatment, rating 0-100 (100=death), Table 3
Experimental: as §1, §2
as §3, with “These acetone solutions are diluted with water and the resulting formulations applied at dosage levels corresponding to 15 g, 30 g, 60 g, 120 g or 240 g of active material per hectare in a volume equivalent to 900 liters per hectare. In” for “In”

[13] = test system: Triticum aestivum variety “Kanzler”; experiment: Pre-emergence test, selectivity; settings: 3 weeks after treatment, rating 0-100 (100=death), Table 4
Experimental: as §1, §2
as §3, with “These acetone solutions are diluted with water and the resulting formulations applied at dosage levels corresponding to 15 g, 30 g, 60 g, 120 g or 240 g of active material per hectare in a volume equivalent to 900 liters per hectare. In” for “In”

[14] = test system: Triticum aestivum variety “Monopol”; experiment: Pre-emergence test, selectivity; settings: 3 weeks after treatment, rating 0-100 (100=death), Table 4
Experimental: as §1, §2
as §3, with “These acetone solutions are diluted with water and the resulting formulations applied at dosage levels corresponding to 15 g, 30 g, 60 g, 120 g or 240 g of active material per hectare in a volume equivalent to 900 liters per hectare. In” for “In”

[15] = test system: wheat; experiment: Pre-emergence test, tolerance in wheat; settings: in vivo
Experimental: as §1, §2
as §3, with “These acetone solutions are diluted with water and the resulting formulations applied at dosage levels corresponding to 15 g, 30 g, 60 g, 120 g or 240 g of active material per hectare in a volume equivalent to 900 liters per hectare. In” for “In”

CSc1cc(Oc2ccnc(Cl)c2)nc(-c2ccc(C(F)(F)F)cc2)n1 [REF-7]
ALOMY weed control rating ([1]; 0.030 kg/ha): 10 | ALOMY weed control rating ([1]; 0.060 kg/ha): 35 | ALOMY weed control rating ([1]; 0.120 kg/ha): 65 | ALOMY weed control rating ([1]; 0.240 kg/ha): 90 | APESV weed control rating ([2]; 0.030 kg/ha): 100 | APESV weed control rating ([2]; 0.060 kg/ha): 100 | APESV weed control rating ([2]; 0.120 kg/ha): 100 | APESV weed control rating ([2]; 0.240 kg/ha): 100 | GALAP weed control rating ([3]; 0.120 kg/ha): 65 | GALAP weed control rating ([3]; 0.240 kg/ha): 92 | LAMPU weed control rating ([4]; 0.030 kg/ha): 30 | LAMPU weed control rating ([4]; 0.060 kg/ha): 90 | LAMPU weed control rating ([4]; 0.120 kg/ha): 93 | LAMPU weed control rating ([4]; 0.240 kg/ha): 100 | LOLPE weed control rating ([5]; 0.030 kg/ha): 75 | LOLPE weed control rating ([5]; 0.060 kg/ha): 90 | LOLPE weed control rating ([5]; 0.120 kg/ha): 97 | LOLPE weed control rating ([5]; 0.240 kg/ha): 99 | MATIN weed control rating ([6]; 0.030 kg/ha): 90 | MATIN weed control rating ([6]; 0.060 kg/ha): 100 | MATIN weed control rating ([6]; 0.120 kg/ha): 100 | MATIN weed control rating ([6]; 0.240 kg/ha): 100 | POAAN weed control rating ([7]; 0.030 kg/ha): 95 | POAAN weed control rating ([7]; 0.060 kg/ha): 95 | POAAN weed control rating ([7]; 0.120 kg/ha): 100 | POAAN weed control rating ([7]; 0.240 kg/ha): 100 | SETVI weed control rating ([8]; 0.030 kg/ha): 35 | SETVI weed control rating ([8]; 0.060 kg/ha): 85 | SETVI weed control rating ([8]; 0.120 kg/ha): 93 | SETVI weed control rating ([8]; 0.240 kg/ha): 100 | STEME weed control rating ([9]; 0.030 kg/ha): 25 | STEME weed control rating ([9]; 0.060 kg/ha): 98 | STEME weed control rating ([9]; 0.120 kg/ha): 98 | STEME weed control rating ([9]; 0.240 kg/ha): 100 | VERPE weed control rating ([10]; 0.030 kg/ha): 70 | VERPE weed control rating ([10]; 0.060 kg/ha): 90 | VERPE weed control rating ([10]; 0.120 kg/ha): 99 | VERPE weed control rating ([10]; 0.240 kg/ha): 100 | PAPRH weed control rating ([11]; 0.030 kg/ha): 95 | PAPRH weed control rating ([11]; 0.060 kg/ha): 100 | PAPRH weed control rating ([11]; 0.120 kg/ha): 100 | PAPRH weed control rating ([11]; 0.240 kg/ha): 100 | VIOAR weed control rating ([12]; 0.030 kg/ha): 98 | VIOAR weed control rating ([12]; 0.060 kg/ha): 99 | VIOAR weed control rating ([12]; 0.120 kg/ha): 99 | VIOAR weed control rating ([12]; 0.240 kg/ha): 99 | TRZAWK rating (Selectivity) ([13]; 0.030 kg/ha): 2 | TRZAWK rating (Selectivity) ([13]; 0.060 kg/ha): 5 | TRZAWK rating (Selectivity) ([13]; 0.120 kg/ha): 5 | TRZAWK rating (Selectivity) ([13]; 0.240 kg/ha): 18 | TRZAWM rating (Selectivity) ([14]; 0.030 kg/ha): 2 | TRZAWM rating (Selectivity) ([14]; 0.060 kg/ha): 5 | TRZAWM rating (Selectivity) ([14]; 0.120 kg/ha): 5 | TRZAWM rating (Selectivity) ([14]; 0.240 kg/ha): 10 | maximum tolerated dose in wheat / dose at which sufficiently selective in wheat [15]: 240 g/ha

COc1cnc(-c2ccc(C(F)(F)F)cc2)nc1Oc1ccnc(Cl)c1 [REF-8]
ALOMY weed control rating ([1]; 0.030 kg/ha): 15 | ALOMY weed control rating ([1]; 0.060 kg/ha): 35 | ALOMY weed control rating ([1]; 0.120 kg/ha): 70 | ALOMY weed control rating ([1]; 0.240 kg/ha): 90 | APESV weed control rating ([2]; 0.030 kg/ha): 100 | APESV weed control rating ([2]; 0.060 kg/ha): 100 | APESV weed control rating ([2]; 0.120 kg/ha): 100 | APESV weed control rating ([2]; 0.240 kg/ha): 100 | GALAP weed control rating ([3]; 0.030 kg/ha): 3 | GALAP weed control rating ([3]; 0.120 kg/ha): 70 | GALAP weed control rating ([3]; 0.240 kg/ha): 70 | LAMPU weed control rating ([4]; 0.030 kg/ha): 98 | LAMPU weed control rating ([4]; 0.060 kg/ha): 100 | LAMPU weed control rating ([4]; 0.120 kg/ha): 100 | LAMPU weed control rating ([4]; 0.240 kg/ha): 100 | LOLPE weed control rating ([5]; 0.030 kg/ha): 60 | LOLPE weed control rating ([5]; 0.060 kg/ha): 97 | LOLPE weed control rating ([5]; 0.120 kg/ha): 99 | LOLPE weed control rating ([5]; 0.240 kg/ha): 99 | MATIN weed control rating ([6]; 0.030 kg/ha): 95 | MATIN weed control rating ([6]; 0.060 kg/ha): 100 | MATIN weed control rating ([6]; 0.120 kg/ha): 100 | MATIN weed control rating ([6]; 0.240 kg/ha): 100 | POAAN weed control rating ([7]; 0.030 kg/ha): 100 | POAAN weed control rating ([7]; 0.060 kg/ha): 100 | POAAN weed control rating ([7]; 0.120 kg/ha): 100 | POAAN weed control rating ([7]; 0.240 kg/ha): 100 | SETVI weed control rating ([8]; 0.030 kg/ha): 60 | SETVI weed control rating ([8]; 0.060 kg/ha): 90 | SETVI weed control rating ([8]; 0.120 kg/ha): 90 | SETVI weed control rating ([8]; 0.240 kg/ha): 100 | STEME weed control rating ([9]; 0.030 kg/ha): 35 | STEME weed control rating ([9]; 0.060 kg/ha): 85 | STEME weed control rating ([9]; 0.120 kg/ha): 100 | STEME weed control rating ([9]; 0.240 kg/ha): 100 | VERPE weed control rating ([10]; 0.030 kg/ha): 100 | VERPE weed control rating ([10]; 0.060 kg/ha): 100 | VERPE weed control rating ([10]; 0.120 kg/ha): 100 | VERPE weed control rating ([10]; 0.240 kg/ha): 100 | PAPRH weed control rating ([11]; 0.030 kg/ha): 100 | PAPRH weed control rating ([11]; 0.060 kg/ha): 100 | PAPRH weed control rating ([11]; 0.120 kg/ha): 100 | PAPRH weed control rating ([11]; 0.240 kg/ha): 100 | VIOAR weed control rating ([12]; 0.030 kg/ha): 99 | VIOAR weed control rating ([12]; 0.060 kg/ha): 99 | VIOAR weed control rating ([12]; 0.120 kg/ha): 100 | VIOAR weed control rating ([12]; 0.240 kg/ha): 100 | TRZAWK rating (Selectivity) ([13]; 0.030 kg/ha): 1 | TRZAWK rating (Selectivity) ([13]; 0.060 kg/ha): 5 | TRZAWK rating (Selectivity) ([13]; 0.120 kg/ha): 12 | TRZAWK rating (Selectivity) ([13]; 0.240 kg/ha): 18 | TRZAWM rating (Selectivity) ([14]; 0.030 kg/ha): 1 | TRZAWM rating (Selectivity) ([14]; 0.060 kg/ha): 3 | TRZAWM rating (Selectivity) ([14]; 0.120 kg/ha): 15 | TRZAWM rating (Selectivity) ([14]; 0.240 kg/ha): 18 | maximum tolerated dose in wheat / dose at which sufficiently selective in wheat [15]: 120 g/ha
